{"source": "patent US20230203043A1", "about": "“NOVEL IMIDAZOPYRAZINE DERIVATIVES” (Hoffmann-La Roche Inc., priority 2020, published 2023)", "note": "Structures can show the parent of a compound that is named as a salt."}
{"tested_on": "Acinetobacter baumannii ATCC17961", "assay": "Antimicrobial susceptibility testing: 90% growth inhibitory concentration (IC90) determination in Iso-Sensitest broth, OD600 growth", "format": "cell-based", "details": "Acinetobacter baumannii, ATCC17961, 16 h, read-out: A. baumannii ATCC 17961 IC90 (uM), strain ATCC 17961, OD600 growth over 16 h", "procedure,_shortened": "(§1)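 Compounds were twofold serially diluted in DMSO across 10 points (e.g. 50 to 0.097 μM final) and inoculated at ~5×10^(5) CFU/ml. Plates incubated at 35±2° C, with OD600 read every 20 minutes over 16 h. IC90 was derived from growth inhibition during logarithmic growth.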", "units": {"IC90": "µM"}}
{"smiles": "Cc1cc(Nc2nccn3c(-c4cn(CC#N)nc4C(F)(F)F)cnc23)ccc1C(=O)N[C@H](C)C(=O)N1CCC(N)CC1", "note": "[Example 690, N-[(1R)-2-(4-amino-1-piperidyl)-1-methyl-2-oxo-ethyl]-4-[[3-[1-(cyanomethyl)-3-(trifluoromethyl)pyrazol-4-yl]imidazo[1,2-a]pyrazin-8-yl]amino]-2-methyl-benzamide formate]", "IC90": 0.351}
{"smiles": "CCc1cc(Nc2nccn3c(-c4c[nH]nc4C(F)(F)F)cnc23)ccc1C(=O)NCCNC(=O)CN", "note": "[Example 691, N-(2-(2-aminoacetamido)ethyl)-2-ethyl-4-((3-(3-(trifluoromethyl)-1H-pyrazol-4-yl)imidazo [1,2-a]pyrazin-8-yl)amino)benzamide formate]", "IC90": 0.352}
{"smiles": "CN(C)CCNC(=O)CNC(=O)c1ccc(Nc2nccn3c(-c4cn(CC#N)nc4C(F)(F)F)cnc23)cc1Cl", "note": "[Example 693, 2-chloro-4-[[3-[1-(cyanomethyl)-3-(trifluoromethyl)pyrazol-4-yl]imidazo[1,2-a]pyrazin-8-yl]amino]-N-[2-[2-(dimethylamino)ethylamino]-2-oxo-ethyl]benzamide formate]", "IC90": 0.358}
{"smiles": "Cc1cc(Nc2nccn3c(-c4cn(CC#N)nc4C(F)(F)F)cnc23)cc(F)c1C(=O)N1CCN(C(=O)CN)CC1", "note": "[Example 695, 2-(4-(8-((3-fluoro-4-(4-glycylpiperazine-1-carbonyl)-5-methylphenyl)amino)imidazo[1,2-a]pyrazin-3-yl)-3-(trifluoromethyl)-1H-pyrazol-1-yl) acetonitrile formate]", "IC90": 0.362}
{"smiles": "CCc1cc(Nc2nccn3c(-c4c[nH]nc4C(F)(F)F)cnc23)ccc1C(=O)NCCNC(=O)[C@@H](C)N", "note": "[Example 696, (R)-N-(2-(2-aminopropanamido)ethyl)-2-ethyl-4-((3-(3-(trifluoromethyl)-1H-pyrazol-4-yl)imidazo [1,2-a]pyrazin-8-yl)amino)benzamide formate]", "IC90": 0.37}
{"smiles": "CCc1cc(Nc2nccn3c(-c4cn(CC#N)nc4C(F)(F)F)cnc23)ccc1C(=O)N[C@H](C)C(=O)N1CCC(N)CC1", "note": "[Example 697, N-[(1R)-2-(4-amino-1-piperidyl)-1-methyl-2-oxo-ethyl]-4-[[3-[1-(cyanomethyl)-3-(trifluoromethyl)pyrazol-4-yl]imidazo[1,2-a]pyrazin-8-yl]amino]-2-ethyl-benzamide formate]", "IC90": 0.371}
{"smiles": "CCc1cc(Nc2nccn3c(-c4cn(C(C)C#N)nc4C(F)(F)F)cnc23)ccc1C(=O)NCC1CC1N", "note": "(centres unmarked) [Example 700, N-((2-aminocyclopropyl)methyl)-4-((3-(1-(1-cyanoethyl)-3-(trifluoromethyl)-1H-pyrazol-4-yl)imidazo[1,2-a]pyrazin-8-yl)amino)-2-ethylbenzamide formate]", "IC90": 0.382}
{"smiles": "CCc1cc(Nc2nccn3c(-c4cn(CC#N)nc4C(F)(F)F)cnc23)ccc1C(=O)NCCCNC(=O)CCN", "note": "[Example 702, N-(3-(3-aminopropanamido)propyl)-4-((3-(1-(cyanomethyl)-3-(trifluoromethyl)-1H-pyrazol-4-yl)imidazo[1,2-a]pyrazin-8-yl)amino)-2-ethylbenzamide formate]", "IC90": 0.383}
{"smiles": "Cc1cc(Nc2nccn3c(-c4cn(CC#N)nc4C(F)(F)F)cnc23)cc(F)c1C(=O)N1CCN(C(=O)C2CCNCC2)CC1", "note": "[Example 703, 2-(4-(8-((3-fluoro-5-methyl-4-(4-(piperidine-4-carbonyl)piperazine-1-carbonyl)phenyl)amino)imidazo[1,2-a]pyrazin-3-yl)-3-(trifluoromethyl)-1H-pyrazol-1-yl)acetonitrile formate]", "IC90": 0.383}
{"tested_on": "Acinetobacter baumannii ATCC17961", "assay": "Antimicrobial susceptibility testing: 90% growth inhibitory concentration (IC90) determination in Iso-Sensitest broth, OD600 growth", "format": "cell-based", "details": "Acinetobacter baumannii, ATCC17961, 16 h, strain ATCC 17961, OD600 growth over 16 h, read-out: A. baumannii ATCC 17961 IC90", "procedure,_shortened": "as §1", "units": {"IC90": "µM"}}
{"smiles": "Cc1cc(Nc2nccn3c(-c4cn(CC(F)F)nc4C(F)(F)F)cnc23)cc(F)c1C(=O)N1CCN(C(=O)[C@H]2[C@@H]3CNC[C@@H]32)CC1", "note": "[Example 692, (4-((1R,5S,6r)-3-azabicyclo[3.1.0]hexane-6-carbonyl)piperazin-1-yl)(4-((3-(1-(2,2-difluoroethyl)-3-(trifluoromethyl)-1H-pyrazol-4-yl)imidazo[1,2-a]pyrazin-8-yl)amino)-2-fluoro-6-methylphenyl)methanone]", "IC90": 0.356}
{"smiles": "C#CCn1cc(-c2cnc3c(Nc4ccc(C(=O)N5CCN(C(=O)[C@H](C)N)CC5)c(CC)c4)nccn23)c(C(F)F)n1", "note": "[Example 694, (S)-2-amino-1-(4-(4-((3-(3-(difluoromethyl)-1-(prop-2-yn-1-yl)-1H-pyrazol-4-yl)imidazo[1,2-a]pyrazin-8-yl)amino)-2-ethylbenzoyl)piperazin-1-yl)propan-1-one]", "IC90": 0.358}
{"smiles": "Cc1cc(Nc2nccn3c(-c4cn(CC(F)F)nc4C(F)(F)F)cnc23)cc(F)c1C(=O)N1CCN(C(=O)[C@@H]2C[C@@H](O)CN2)CC1", "note": "[Example 698, (4-(4-((3-(1-(2,2-difluoroethyl)-3-(trifluoromethyl)-1H-pyrazol-4-yl)imidazo[1,2-a]pyrazin-8-yl)amino)-2-fluoro-6-methylbenzoyl)piperazin-1-yl)((2S,4R)-4-hydroxypyrrolidin-2-yl)methanone]", "IC90": 0.374}
{"smiles": "Cc1cc(Nc2nccn3c(-c4cn(CC#N)nc4C(F)(F)F)cnc23)cc(F)c1C(=O)N1CCN(C(=O)[C@H]2C[C@@H](N)C2)CC1", "note": "[Example 699, 2-(4-(8-((4-(4-((1s,3s)-3-aminocyclobutane-1-carbonyl)piperazine-1-carbonyl)-3-fluoro-5-methylphenyl)amino)imidazo[1,2-a]pyrazin-3-yl)-3-(trifluoromethyl)-1H-pyrazol-1-yl) acetonitrile formate]", "IC90": 0.38}
{"smiles": "Cc1cc(Nc2nccn3c(-c4cn(CC(F)F)nc4C(F)(F)F)cnc23)cc(F)c1C(=O)N1CCN(C(=O)[C@H]2C[C@@H](N)C2)CC1", "note": "[Example 701, (4-((1s,3s)-3-aminocyclobutane-1-carbonyl)piperazin-1-yl)(4-((3-(1-(2,2-difluoroethyl)-3-(trifluoromethyl)-1H-pyrazol-4-yl)imidazo[1,2-a]pyrazin-8-yl)amino)-2-fluoro-6-methylphenyl)methanone]", "IC90": 0.382}
{"smiles": "Cc1cc(Nc2nccn3c(-c4cn(CC(F)F)nc4C(F)(F)F)cnc23)cc(F)c1C(=O)N[C@H](C)CN", "note": "[Example 704, (R)-N-(1-aminopropan-2-yl)-4-((3-(1-(2,2-difluoroethyl)-3-(trifluoromethyl)-1H-pyrazol-4-yl)imidazo[1,2-a]pyrazin-8-yl)amino)-2-fluoro-6-methylbenzamide]", "IC90": 0.386}
{"smiles": "Cc1cc(Nc2nccn3c(-c4cn(CC(F)F)nc4C(F)(F)F)cnc23)cc(F)c1C(=O)N[C@H](C)CNC(=O)C1CCNCC1", "note": "[Example 705, (R)-N-(2-(4-((3-(1-(2,2-difluoroethyl)-3-(trifluoromethyl)-1H-pyrazol-4-yl)imidazo[1,2-a]pyrazin-8-yl)amino)-2-fluoro-6-methylbenzamido)propyl)piperidine-4-carboxamide]", "IC90": 0.391}
{"smiles": "Cc1cc(Nc2nccn3c(-c4cn(CC#N)nc4C(F)(F)F)cnc23)ccc1C(=O)NCC(=O)N1CCNCC1", "note": "[Example 706, 4-[[3-[1-(cyanomethyl)-3-(trifluoromethyl)pyrazol-4-yl]imidazo[1,2-a]pyrazin-8-yl]amino]-2-methyl-N-(2-oxo-2-piperazin-1-yl-ethyl) benzamide formate]", "IC90": 0.394}
{"smiles": "Cc1cc(Nc2nccn3c(-c4cn(CC(F)F)nc4C(F)(F)F)cnc23)cc(F)c1C(=O)N1CCN(C(=O)C2CCNCC2)CC1", "note": "[Example 707, (4-(4-((3-(1-(2,2-difluoroethyl)-3-(trifluoromethyl)-1H-pyrazol-4-yl)imidazo[1,2-a]pyrazin-8-yl)amino)-2-fluoro-6-methylbenzoyl)piperazin-1-yl)(piperidin-4-yl) methanone]", "IC90": 0.395}
{"smiles": "CCc1cc(Nc2nccn3c(-c4c[nH]nc4C(F)(F)F)cnc23)ccc1C(=O)NCCCNC(=O)CNC(=O)C(F)(F)F", "note": "[Example 708, 2-ethyl-N-(3-(2-(2,2,2-trifluoroacetamido)acetamido)propyl)-4-((3-(3-(trifluoromethyl)-1H-pyrazol-4-yl)imidazo [1,2-a]pyrazin-8-yl)amino)benzamide]", "IC90": 0.397}
{"smiles": "C[C@@H](NC(=O)c1ccc(Nc2nccn3c(-c4cn(CC#N)nc4C(F)(F)F)cnc23)cc1Cl)C(=O)N[C@H]1CCNC1", "note": "[Example 710, 2-chloro-4-[[3-[1-(cyanomethyl)-3-(trifluoromethyl)pyrazol-4-yl]imidazo[1,2-a]pyrazin-8-yl]amino]-N-[(1R)-1-methyl-2-oxo-2-[[(3S)-pyrrolidin-3-yl]amino]ethyl] benzamide formate]", "IC90": 0.408}
{"smiles": "CCc1cc(Nc2nccn3c(-c4cn(CC(F)F)nc4C(F)(F)F)cnc23)ccc1C(=O)NCC(=O)N1CC[C@H](N)C1", "note": "[Example 711, N-[2-[(3S)-3-aminopyrrolidin-1-yl]-2-oxo-ethyl]-4-[[3-[1-(2,2-difluoroethyl)-3-(trifluoromethyl)pyrazol-4-yl]imidazo[1,2-a]pyrazin-8-yl]amino]-2-ethyl-benzamide]", "IC90": 0.409}
{"smiles": "CCc1cc(Nc2nccn3c(-c4cn(CC#N)nc4C(F)(F)F)cnc23)ccc1C(=O)N[C@H](C)CNC(=O)[C@@H]1C[C@@H](O)CN1", "note": "[Example 712, (2S,4R)-N-((R)-2-(4-((3-(1-(cyanomethyl)-3-(trifluoromethyl)-1H-pyrazol-4-yl)imidazo[1,2-a]pyrazin-8-yl)amino)-2-ethylbenzamido)propyl)-4-hydroxypyrrolidine-2-carboxamide]", "IC90": 0.41}
{"tested_on": "Acinetobacter baumannii ATCC17961", "assay": "Antimicrobial susceptibility testing: 90% growth inhibitory concentration (IC90) determination in Iso-Sensitest broth, OD600 growth", "format": "cell-based", "details": "strain ATCC 17961, OD600 growth over 16 h, read-out: A. baumannii ATCC 17961 IC90", "procedure,_shortened": "as §1", "units": {"IC90": "µM"}}
{"smiles": "Cc1cc(Nc2nccn3c(-c4cn(CC#N)nc4C(F)(F)F)cnc23)cc(F)c1C(=O)N[C@H](C)CNC(=O)[C@H]1C[C@@H](N)C1", "note": "[Example 709, N-((R)-1-((1s,3S)-3-aminocyclobutane-1-carboxamido)propan-2-yl)-4-((3-(1-(cyanomethyl)-3-(trifluoromethyl)-1H-pyrazol-4-yl)imidazo[1,2-a]pyrazin-8-yl)amino)-2-fluoro-6-methylbenzamide formate]", "IC90": 0.404}
